{
  "source": "paper PMC5906710",
  "about": "“Simvastatin Enhances Activity and Trafficking of α7 Nicotinic Acetylcholine Receptor in Hippocampal Neurons Through PKC and CaMKII Signaling Pathways” (Frontiers in Pharmacology, 2018)",
  "biological_target": "T1, α7 nicotinic acetylcholine receptor (α7nAChR) (Mus musculus, UniProt P49582)",
  "T1 construct": "gene Chrna7; native receptor in hippocampal CA1 pyramidal cells (slices)",
  "T1 sequence (P49582 23-502)": "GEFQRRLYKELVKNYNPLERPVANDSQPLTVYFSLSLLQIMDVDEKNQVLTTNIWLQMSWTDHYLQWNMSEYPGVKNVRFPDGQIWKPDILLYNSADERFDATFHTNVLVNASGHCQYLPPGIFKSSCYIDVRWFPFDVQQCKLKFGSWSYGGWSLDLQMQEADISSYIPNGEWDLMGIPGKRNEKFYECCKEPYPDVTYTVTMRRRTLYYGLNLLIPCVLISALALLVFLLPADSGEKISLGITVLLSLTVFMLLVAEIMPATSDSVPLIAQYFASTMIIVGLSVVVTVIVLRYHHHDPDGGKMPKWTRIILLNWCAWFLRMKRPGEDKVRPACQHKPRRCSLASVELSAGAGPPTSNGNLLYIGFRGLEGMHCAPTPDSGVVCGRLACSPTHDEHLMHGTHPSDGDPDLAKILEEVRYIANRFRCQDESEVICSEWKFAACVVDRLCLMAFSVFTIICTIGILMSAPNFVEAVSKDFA",
  "experiment": "whole-cell patch-clamp of ACh-evoked currents in mouse hippocampal slices, dose-response",
  "data": [
    {"smiles": "CC(=O)OCC[N+](C)(C)C", "note": "[ACh, acetylcholine]", "values": [
      {"measurement": "EC50", "value": "117.1 ± 0.94", "unit": "µM"}
    ]}
  ]
}
